Data reported in patent publication US8586565B2, “Kinase inhibitors useful for the treatment of myleoproliferative diseases and other proliferative diseases” (Deciphera Pharmaceuticals, LLC, priority 2006, dated 2013).

Legend:
[1] = target: T1, Abl kinase (Seq. ID no. 1) (Homo sapiens, UniProt P00519); assay: Abl kinase (u-Abl) spectrophotometric coupled kinase assay; format: biochemical; conditions: for IC50: unphosphorylated-Abl kinase, 2 h preincubation, ATP 500 μM
T1 construct: His6 with TEV cleavage site ([…] leader) (N); purchased deCode Genetics
T1 sequence (P00519 with tags, fused parts or gaps): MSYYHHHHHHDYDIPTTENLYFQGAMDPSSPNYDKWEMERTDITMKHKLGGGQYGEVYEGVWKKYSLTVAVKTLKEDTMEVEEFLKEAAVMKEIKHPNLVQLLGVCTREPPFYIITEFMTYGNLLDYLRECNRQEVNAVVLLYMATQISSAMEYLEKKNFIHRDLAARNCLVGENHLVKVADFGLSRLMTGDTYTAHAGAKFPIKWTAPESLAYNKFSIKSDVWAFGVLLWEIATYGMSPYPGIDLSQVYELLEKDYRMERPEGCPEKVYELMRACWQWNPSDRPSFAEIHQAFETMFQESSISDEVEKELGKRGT
Protocol: Abl kinase (Seq. […] Activity of Abl kinase (Seq. […] Science (2000) 289, 1938-1942). In this assay, the oxidation of NADH (thus the decrease at A340 nm) was continuously monitored spectrophometrically. […] Test compounds were incubated with Abl kinase (Seq. […] The absorption at 340 nm was monitored continuously for 2 hours at 30° C. on Polarstar Optima plate reader (BMG). The reaction rate was calculated using the 1.0 to 2.0 h time frame. Percent inhibition was obtained by comparison of reaction rate with that of a control (i.e. with no test compound). IC50 values were calculated from a series of percent inhibition values determined at a range of inhibitor concentrations using software routines as implemented in the GraphPad Prism software package.

[2] = target: T2, pAbl kinase (Seq. ID no. 1) (Homo sapiens, UniProt P00519); assay: pAbl kinase spectrophotometric coupled kinase assay; format: biochemical; conditions: for IC50: phosphorylated-Abl kinase, 2 h preincubation, ATP 500 μM, read-out: p-Abl IC50
T2 construct: His6 with TEV cleavage site ([…] leader) (N); purchased deCode Genetics
T2 sequence (P00519 with tags, fused parts or gaps): T1 sequence (P00519 with tags, fused parts or gaps)
Protocol: pAbl Kinase Assay Activity of pAbl kinase (Seq. […] Science (2000) 289, 1938-1942). In this assay, the oxidation of NADH (thus the decrease at […]) was continuously monitored spectrophometrically. […] Test compounds were incubated with pAbl (SEQ. […] The absorption at 340 nm was monitored continuously for 2 hours at 30° C. on Polarstar Optima plate reader (BMG). The reaction rate was calculated using the 1.0 to 2.0 h time frame. Percent inhibition was obtained by comparison of reaction rate with that of a control (i.e. with no test compound). IC50 values were calculated from a series of percent inhibition values determined at a range of inhibitor concentrations using software routines as implemented in the GraphPad Prism software package. pAbl was obtained as a phosphorylated form of the enzyme used in the Abl assay (see above).

[3] = target: T3, Abl(T315I) (Seq. ID no. 2) kinase (Homo sapiens, UniProt P00519, T315I); assay: Abl(T315I) kinase spectrophotometric coupled kinase assay; format: biochemical; conditions: for IC50: T315I mutant Abl kinase, 2 h preincubation, ATP 500 μM
T3 construct: His6 with TEV cleavage site ([…] leader) (N); purchased decode Genetics
T3 sequence (P00519 with tags, fused parts or gaps T315I): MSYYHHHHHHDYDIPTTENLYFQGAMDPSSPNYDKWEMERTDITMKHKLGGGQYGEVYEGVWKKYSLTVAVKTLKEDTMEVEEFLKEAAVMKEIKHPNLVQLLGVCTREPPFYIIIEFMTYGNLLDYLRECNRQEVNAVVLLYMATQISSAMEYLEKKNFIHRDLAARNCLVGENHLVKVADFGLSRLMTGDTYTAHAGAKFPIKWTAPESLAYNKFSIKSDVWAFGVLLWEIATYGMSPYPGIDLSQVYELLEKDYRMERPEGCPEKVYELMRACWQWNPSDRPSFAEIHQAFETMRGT
Protocol: Science (2000) 289, 1938-1942). In this assay, the oxidation of NADH (thus the decrease at A340nm) was continuously monitored spectrophometrically. […] (SEQ. […] The absorption at 340 nm was monitored continuously for 2 hours at 30° C. on Polarstar Optima plate reader (BMG). The reaction rate was calculated using the 1.0 to 2.0 h time frame. Percent inhibition was obtained by comparison of reaction rate with that of a control (i.e. with no test compound). IC50 values were calculated from a series of percent inhibition values determined at a range of inhibitor concentrations using software routines as implemented in the GraphPad Prism software package.

[4] = test system: BaF3 cells transfected with wild type bcr-Abl; assay: Cell proliferation assay, BaF3 wt bcr-abl; format: cell-based; conditions: Mus musculus, 72 hours, Cell Titer Blue
Protocol: (§1) Briefly, cells were grown in RPMI 1640 supplemented with 10% characterized fetal bovine serum (HyClone, Logan, Utah) at 37 degrees Celsius, 5% CO2, 95% humidity. Cells were allowed to expand until reaching 80% saturation at which point they were subcultured or harvested for assay use.
(§2) A serial dilution of test compound was dispensed into a 96 well black clear bottom plate (Corning, Corning, N.Y.). For each cell line, three thousand cells were added per well in complete growth medium. Plates were incubated for 72 hours at 37 degrees Celsius, 5% CO2, 95% humidity. At the end of the incubation period Cell Titer Blue (Promega, Madison, Wis.) was added to each well and an additional 4.5 hour incubation at 37 degrees Celsius, 5% CO2, 95% humidity was performed. Plates were then read on a BMG Fluostar Optima (BMG, Durham, N.C.) using an excitation of 544 nm and an emission of 612 nm. Data was analyzed using Prism software (Graphpad, San Diego, Calif.) to calculate IC50's.

[5] = test system: BaF3 cells transfected with bcr-Abl point mutant T315I; assay: Cell proliferation assay, BaF3 T315I bcr-abl; format: cell-based; conditions: Mus musculus, 72 hours, Cell Titer Blue
Protocol: as §1, §2

[6] = test system: BaF3 cells transfected with bcr-Abl point mutant Y253F; assay: Cell proliferation assay, BaF3 Y253F bcr-abl; format: cell-based; conditions: Mus musculus, 72 hours, Cell Titer Blue
Protocol: as §1, §2

[7] = test system: BaF3 cells transfected with bcr-Abl point mutant E255K; assay: Cell proliferation assay, BaF3 E255K bcr-abl; format: cell-based; conditions: Mus musculus, 72 hours, Cell Titer Blue
Protocol: as §1, §2

[8] = test system: BaF3 cells transfected with bcr-Abl point mutant M351T; assay: Cell proliferation assay, BaF3 M351T bcr-abl; format: cell-based; conditions: Mus musculus, 72 hours, Cell Titer Blue
Protocol: as §1, §2

Row | SMILES | times more potent vs. u-Abl kinase than Compound C ([1]; relative to unsubstituted (R16=H) Compound C) | IC50 [1] | IC50 [2] | times more potent vs. p-Abl kinase than Compound C ([2]; relative to Compound C) | IC50 [3] | times more potent vs. T315I mutant Abl kinase than Compound C ([3]; relative to Compound C) | times more potent vs. p-Abl kinase than Compound A ([2]; relative to unsubstituted (R16=H) Compound A) | IC50 [4] | IC50 [5] | IC50 [6] | IC50 [7] | IC50 [8] | times more potent vs. u-Abl kinase than Compound B ([1]; relative to unsubstituted (R16=H) Compound B) | times more potent vs. p-Abl kinase than Compound B ([2]; relative to Compound B) | times more potent vs. T315I mutant Abl kinase than Compound B ([3]; relative to Compound B)
1 | CNC(=O)c1cc(Oc2ccc(NC(=O)Nc3cc(C(C)(C)C)nn3-c3ccc4[nH]ncc4c3)c(F)c2)ccn1 [Example 4, 1-(3-tert-butyl-1-(1H-indazol-5-yl)-1H-pyrazol-5-yl)-3-(2-fluoro-4-(2-(methylcarbamoyl)pyridin-4-yloxy)phenyl)urea] | 2.2 times | 0.0007 µM | 0.02 µM | 18 times | 0.012 µM | 13 times |  |  |  |  |  |  |  |  | 
2 | CNC(=O)c1cc(Oc2ccc(NC(=O)Nc3cc(C(C)(C)C)nn3-c3ccc4ncccc4c3)cc2C)ccn1 [Example 5, 1-(3-tert-butyl-1-(quinolin-6-yl)-1H-pyrazol-5-yl)-3-(3-methyl-4-(2-(methylcarbamoyl)pyridin-4-yloxy)phenyl)urea] |  | 0.0007 µM | 0.006 µM |  | 0.25 µM |  | 4 times | 0.008 µM | 0.025 µM | 0.015 µM | 0.062 µM | 0.01 µM |  |  | 
3 | CC(C)c1cc(NC(=O)Nc2ccc(Oc3ccnc(C(N)=O)c3)cc2F)n(-c2ccc3ncccc3c2)n1 [Example 15, 1-(4-(2-carbamoylpyridin-4-yloxy)-2-fluorophenyl)-3-(3-isopropyl-1-(quinolin-6-yl)-1H-pyrazol-5-yl)urea] |  | 0.001 µM | 0.035 µM |  | 0.056 µM |  |  | 0.011 µM | 0.025 µM | 0.086 µM | 0.238 µM | 0.013 µM | 8 times | > 14 times | 18 times
